For one series, the system named is 501Mel cells (parental). Put plainly: Kinase inhibitor library screening, PrestoBlue cell viability, 1 or 10 μM, 72 h. The following applies: 501Mel Parental, 72 h. The gist of the method: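 Treatment: 72 h with inhibitor. Detection: PrestoBlue, plate reader. Output: viability as % untreated control. Replicates: duplicate minimum. Lines: parental plus Vemurafenib- or Dabrafenib-resistant derivatives.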

Series [1] has as its system 501Mel-GP cells (Dabrafenib-resistant). The series is described as above. The following applies: 501Mel GP, 72 h.
Series [2] has as its system 501Mel-XP cells (Vemurafenib-resistant). The description is as above. The following applies: 501Mel XP, 72 h.
Series [3] concerns A375 cells (parental). The description is as above. The following applies: A375 Parental, 72 h; for cell viability, A375 Parental, 1μΜ / cell viability, A375 Parental, 10μΜ: in %.
The subject of series [4] is A375-GP cells (Dabrafenib-resistant). Described as above. The following applies: A375 GP, 72 h; for cell viability, A375 GP, 1μΜ / cell viability, A375 GP, 10μΜ: in %.
The test system of series [5] is A375-XP cells (Vemurafenib-resistant). The series is described as above. The following applies: A375 XP, 72 h; for cell viability, A375 XP, 1μΜ / cell viability, A375 XP, 10μΜ: in %.
For another series, the system named is IGR37 cells (parental). The series is described as above. The following applies: IGR37 Parental, 72 h.
Series [6] relates to IGR37-GP cells (Dabrafenib-resistant). The description is as above. The following applies: IGR37 GP, 72 h.
The subject of series [7] is IGR37-XP cells (Vemurafenib-resistant). The description is as above. The following applies: IGR37 XP, 72 h.
The subject of series [8] is A375 cells (parental). Kind of series: Dose-response curves and IC50, PrestoBlue cell viability, 72 h. The following applies: read-out: Half-maximal inhibitory concentration value (IC50), Mean. It is filed as cell-based, human.
For series [9], the system named is A375-XP cells (Vemurafenib-resistant). Described as above. The following applies: n.e. = did not suppress growth below 50% in the tested concentration range, read-out: Half-maximal inhibitory concentration value (IC50), Mean. It is filed as cell-based, human.
For series [10], the system named is A375-GP cells (Dabrafenib-resistant). The description is as above. The following applies: n.e. = did not suppress growth below 50% in the tested concentration range, read-out: Half-maximal inhibitory concentration value (IC50), Mean. In kind it is cell-based, human.
Series [11] concerns IGR37-GP cells (Dabrafenib-resistant). The description is as above. The following applies: Homo sapiens, 72 h, read-out: Half-maximal inhibitory concentration (IC50).
Experimental: All inhibitors used in this study were purchased from Selleck Chemicals (Houston, USA). They were dissolved in DMSO to a stock concentration of 10 mM according to the manufacturer’s instructions and stored at − 80 °C. […] Cell viability was measured with the PrestoBlue Cell Viability Reagent (ThermoFisher Scientific) on a CLARIOstar Monochromator microplate reader (BMG Labtech). Using the GraphPad Prism v5.04 software, the half-maximal inhibitor concentration values (IC50) were determined from the curve using the nonlinear log (inhibitor) vs response-variable slope (four parameters) equation. […] The IC50’s were determined for 3 biological replicates and are listed with their standard deviations.
Values represent the mean of at least three biological replicates; one representative curve of at least 3 biological replicates is depicted. _XP: cells resistant to Vemurafenib (red), _GP: cells resistant to Dabrafenib (green).
[12] abbreviates: Homo sapiens, A-375, n.e. = did not suppress growth below 50% in the tested concentration range.
Where [13] appears, read: n.e. = did not suppress growth below 50% in the tested concentration range.

Each structure is given as a SMILES string. Read-outs that look alike come from different tables or passages of the source.

With `CC(C)CC(=O)Nc1[nH]nc2c1CN(C(=O)C1CCN(C)CC1)C2(C)C` [PHA-793887, reference compound], the “cell viability (kinase inhibitor library screening)” value with 501Mel cells (parental) (1μΜ) turned out to be 90.8%; in the series on 501Mel cells (parental) (10μΜ), 20.0%; in [1] (10μΜ), 25.0%; in series [2] (1μΜ), 88.3%; in series [2] (10μΜ) it was 13.3%; with A375 cells (parental) [3] (10μΜ), 8.5%. The “cell viability (kinase inhibitor library screening)” value in the series with A375 cells (parental) [3] (1μΜ) is recorded as 47.0%; in [4] (1μΜ) it was 52.2%; in series [4] (10μΜ), 4.2%; in series [5] (1μΜ), 60.1%; in series [5] (10μΜ), 10.2%; with IGR37 cells (parental) (1μΜ) it was 100.2%. For the same compound, the “cell viability (kinase inhibitor library screening)” value in the series on IGR37 cells (parental) (10μΜ) stood at 41.8%; in series [6] (1μΜ), 96.5%; in [6] (10μΜ) it was 23.5%; in series [7] (1μΜ), 87.3%; in series [7] (10μΜ) it was 5.3%. For the same compound, the IC50 came to 578 nM with A375 cells (parental) [8] (setting [12]), 1050 nM in series [9] (Homo sapiens) and 720 nM in series [10] (Homo sapiens).

Turning to `CC(=O)Nc1cccc(-n2c(=O)n(C3CC3)c(=O)c3c(Nc4ccc(I)cc4F)n(C)c(=O)c(C)c32)c1` [Trametinib], the IC50 worked out at 0.4 nM with A375 cells (parental) [8] (setting [12]), 2.4 nM in series [9] (Homo sapiens), 1.2 nM in series [10] (Homo sapiens) and 0.7 nM in [11].

Consider `Nc1ncnc2c1c(-c1cnc3[nH]ccc3c1)nn2C1CCCC1` [PP-121, reference compound], for which the “cell viability (kinase inhibitor library screening)” value with 501Mel cells (parental) (1μΜ) amounted to 55.7%; with 501Mel cells (parental) (10μΜ), 3.0%; in series [1] (1μΜ), 44.0%; in [1] (10μΜ), 5.9%; in series [2] (1μΜ) it was 51.0%; in series [2] (10μΜ) it was 2.4%. Moreover, the “cell viability (kinase inhibitor library screening)” value in the series with A375 cells (parental) [3] (10μΜ) turned out to be 6.5%; with A375 cells (parental) [3] (1μΜ), 45.3%; in [4] (1μΜ) it was 36.1%; in series [4] (10μΜ) it was 8.1%; in [5] (1μΜ), 37.9%; in series [5] (10μΜ), 4.5%. For the same compound, the “cell viability (kinase inhibitor library screening)” value in the series on IGR37 cells (parental) (1μΜ) is 75.3%; with IGR37 cells (parental) (10μΜ), 14.0%; in series [6] (1μΜ), 69.2%; in series [6] (10μΜ), 9.1%; in [7] (1μΜ), 60.1%; in [7] (10μΜ) it was 4.3%. For the same compound, the IC50 in the series with A375 cells (parental) [8] (setting [13]) turned out to be 550 nM; in series [9] it was 648 nM; in series [10] it was 417 nM.

With `COc1ccc(-c2cc3c(C)nc(N)nc3n([C@H]3CC[C@H](OCCO)CC3)c2=O)cn1` [PF-04691502, reference compound], the “Cell viability in kinase inhibitor library screening, 501Mel Parental, 1μΜ” value with 501Mel cells (parental) (1μΜ, in %) came to 21.9. For the same compound, the “Cell viability in kinase inhibitor library screening, 501Mel Parental, 10μΜ” value in the series on 501Mel cells (parental) (10μΜ, in %) worked out at 0.8. Moreover, the “Cell viability in kinase inhibitor library screening, 501Mel GP, 1μΜ” value in series [1] (1μΜ, in %) worked out at 14.9. Further, the “Cell viability in kinase inhibitor library screening, 501Mel GP, 10μΜ” value in [1] (10μΜ, in %) is on record as 0.379. Besides, the “Cell viability in kinase inhibitor library screening, 501Mel XP, 1μΜ” value in [2] (1μΜ, in %) is 10.0. Besides, the “Cell viability in kinase inhibitor library screening, 501Mel XP, 10μΜ” value in [2] (10μΜ, in %) is listed as -0.224. Also, the “Cell viability in kinase inhibitor library screening, A375 Parental, 10μΜ” value with A375 cells (parental) [3] (10μΜ) turned out to be 2.9. The “Cell viability in kinase inhibitor library screening, A375 Parental, 1μΜ” value in the series with A375 cells (parental) [3] (1μΜ) was 25.2. For the same compound, the “Cell viability in kinase inhibitor library screening, A375 GP, 1μΜ” value in series [4] (1μΜ) is on record as 22.6. Further, the “Cell viability in kinase inhibitor library screening, A375 GP, 10μΜ” value in series [4] (10μΜ) is on record as 3.9. In [5] (1μΜ), the “Cell viability in kinase inhibitor library screening, A375 XP, 1μΜ” value turned out to be 18.5. Further, the “Cell viability in kinase inhibitor library screening, A375 XP, 10μΜ” value in series [5] (10μΜ) was determined as 3.3. In the series with IGR37 cells (parental) (1μΜ, in %), the “Cell viability in kinase inhibitor library screening, IGR37 Parental, 1μΜ” value came to 38.6. Also, the “Cell viability in kinase inhibitor library screening, IGR37 Parental, 10μΜ” value with IGR37 cells (parental) (10μΜ, in %) amounted to 5.0. The Cell viability in kinase inhibitor library screening, IGR37 GP, 10μΜ in [6] (10μΜ) is 7.5%. Besides, the “Cell viability in kinase inhibitor library screening, IGR37 GP, 1μΜ” value in series [6] (1μΜ, in %) turned out to be 50.6. In series [7] (10μΜ), this compound returned a Cell viability in kinase inhibitor library screening, IGR37 XP, 10μΜ of 3.2%. The “Cell viability in kinase inhibitor library screening, IGR37 XP, 1μΜ” value in series [7] (1μΜ, in %) amounted to 22.1. Also, the IC50 was 298 nM with A375 cells (parental) [8] (setting [13]), 191 nM in series [9] and 254 nM in series [10].

Take `CNC(=O)c1c(F)cccc1Nc1nc(Nc2cc3c(cc2OC)CCN3C(=O)CN(C)C)nc2[nH]ccc12` [GSK1838705A, reference compound]: the “cell viability, 501Mel Parental, 1μΜ” value in the series on 501Mel cells (parental) (1μΜ, in %) is on record as 73.7. In the series on 501Mel cells (parental) (10μΜ, in %), the “cell viability, 501Mel Parental, 10μΜ” value came out at 0.4. Further, the “cell viability, 501Mel GP, 1μΜ” value in [1] (1μΜ, in %) came to 75.8. Further, the “cell viability, 501Mel GP, 10μΜ” value in series [1] (10μΜ, in %) is -0.19. Besides, in series [2] (1μΜ, in %), the “cell viability, 501Mel XP, 1μΜ” value stood at 70.4. Besides, the “cell viability, 501Mel XP, 10μΜ” value in series [2] (10μΜ, in %) is -0.3. Besides, the “cell viability, A375 Parental, 1μΜ” value with A375 cells (parental) [3] (1μΜ) came to 68.1. Further, the “cell viability, A375 Parental, 10μΜ” value with A375 cells (parental) [3] (10μΜ) was determined as 12.8. Moreover, the “cell viability, A375 GP, 1μΜ” value in [4] (1μΜ) came out at 67.8. The “cell viability, A375 GP, 10μΜ” value in [4] (10μΜ) was 10.4. In addition, the “cell viability, A375 XP, 1μΜ” value in series [5] (1μΜ) is reported as 70.8. Also, the “cell viability, A375 XP, 10μΜ” value in [5] (10μΜ) is 11.1. The “cell viability, IGR37 Parental, 1μΜ” value in the series on IGR37 cells (parental) (1μΜ, in %) came to 92.2. Also, in the series with IGR37 cells (parental) (10μΜ, in %), the “cell viability, IGR37 Parental, 10μΜ” value is given as 1.2. In series [6] (10μΜ), this compound returned a cell viability, IGR37 GP, 10μΜ of 2%. For the same compound, the “cell viability, IGR37 GP, 1μΜ” value in series [6] (1μΜ, in %) came out at 73.7. Besides, the cell viability, IGR37 XP, 10μΜ in series [7] (10μΜ) was found to be 1%. Further, the “cell viability, IGR37 XP, 1μΜ” value in series [7] (1μΜ, in %) amounted to 42.8. In addition, the IC50 worked out at 1200 nM in the series on A375 cells (parental) [8] (setting [13]), 769 nM in [9] and 969 nM in [10].

Turning to `CCC[C@H](NC(=O)/C(C#N)=C/c1cccc(Br)n1)c1ccccc1` [WP1130, reference compound], the “cell viability, 501Mel Parental, 1μΜ” value with 501Mel cells (parental) (1μΜ, in %) amounted to 93.7. For the same compound, the “cell viability, 501Mel Parental, 10μΜ” value with 501Mel cells (parental) (10μΜ, in %) is listed as 0.6. Also, the “cell viability, 501Mel GP, 1μΜ” value in series [1] (1μΜ, in %) was found to be 104.8. For the same compound, in series [1] (10μΜ, in %), the “cell viability, 501Mel GP, 10μΜ” value is -0.156. The “cell viability, 501Mel XP, 1μΜ” value in [2] (1μΜ, in %) amounted to 103.9. Also, the “cell viability, 501Mel XP, 10μΜ” value in series [2] (10μΜ, in %) is reported as -0.185. The “cell viability, A375 Parental, 1μΜ” value with A375 cells (parental) [3] (1μΜ) came out at 89.3. Moreover, the “cell viability, A375 Parental, 10μΜ” value in the series on A375 cells (parental) [3] (10μΜ) is recorded as 0.545. In series [4] (1μΜ), the “cell viability, A375 GP, 1μΜ” value worked out at 87.1. The “cell viability, A375 GP, 10μΜ” value in [4] (10μΜ) was 1.1. Also, the “cell viability, A375 XP, 1μΜ” value in [5] (1μΜ) is 57.6. Moreover, the “cell viability, A375 XP, 10μΜ” value in [5] (10μΜ) is on record as 0.429. For the same compound, the “cell viability, IGR37 Parental, 1μΜ” value in the series with IGR37 cells (parental) (1μΜ, in %) amounted to 99.4. Besides, the “cell viability, IGR37 Parental, 10μΜ” value with IGR37 cells (parental) (10μΜ, in %) was -1.6. The compound further showed a cell viability, IGR37 GP, 10μΜ in [6] (10μΜ) of 1.9%. Also, the “cell viability, IGR37 GP, 1μΜ” value in series [6] (1μΜ, in %) is recorded as 96.2. This compound also yielded a cell viability, IGR37 XP, 10μΜ in series [7] (10μΜ) of 1.1%. Moreover, the “cell viability, IGR37 XP, 1μΜ” value in [7] (1μΜ, in %) was found to be 99.1. In addition, the IC50 worked out at 1620 nM in the series with A375 cells (parental) [8] (setting [13]), 1550 nM in series [9] and 1580 nM in series [10].

The values are drawn from publication PMC6364417, “Kinase inhibitor library screening identifies synergistic drug combinations effective in sensitive and resistant melanoma cells” (Journal of Experimental & Clinical Cancer Research : CR, 2019).
